Tests used:
neural precursors [1] = assay: Kinase inhibitor library screening for sustaining neural precursor proliferation (Ki67, EdU incorporation); type: cell-based, human; conditions: SA001-derived neural precursors, N2B27 without growth factors, day 7, compared to DMSO-treated cells
Protocol: Cells were fixed with 4% PFA for 15 min at 4° C. then permeabilized using a PBS/0.3% Triton X100 solution, 10 min at RT. Incubation with primary antibodies was performed. AlexaFluor secondary antibodies and DAPI counterstaining were applied for 1 h at room temperature. Detection was performed using a Zeiss Inverted microscope or the Arrayscan automated microscope.
A homogeneous population of neural precursors was produced after conversion of SA001 PSC line into neural cells and further amplification using EFB medium until passage 8. The stable neural precursors were seeded in 384 well-plates using Agilent BRAVO automate in N2B27 without growth factors. Six hours post-seeding, cells were treated with Enzo Life Sciences Kinase inhibitors library (BML-2832), a collection of 80 different kinase inhibitors. Another treatment was performed at day 4 and the percentage of proliferative precursors was quantified at day 7 using Ki67 and EdU incorporation. SOX2 was used as a neural marker.

neural precursors [2] = assay: Terminal differentiation into neurons of amplified neural precursors; type: cell-based, human; conditions: amplified for 5 passages, compared to EFB medium
From the text: Terminal differentiation into neurons was induced by plating neural precursors on poly-ornithin/laminin at a density of 50,000 cells/cm^2 in N2B27 medium. Medium was changed every 4 days.
We next measured the ability of neural precursors amplified using the PKA inhibitor HA1004 for 5 passages to produce neurons. This was compared to the production of neurons obtained from precursor amplified using EFB medium as a reference.

Row | Structure (SMILES) | neural precursor self-renewal (percentage of Ki67 positive cells) (neural precursors [1]) | ability of amplified neural precursors to produce neurons (neural precursors [2])
1 | O=S(=O)(c1cccc2cnccc12)N1CCCNCC1 [HA1077] | sustained neural precursor self-renewal | 
2 | NCCNS(=O)(=O)c1cccc2cnccc12 [H9] | sustained neural precursor self-renewal | 
3 | CC1CNCCN1S(=O)(=O)c1cccc2cnccc12 (centres unmarked) [H7] | sustained neural precursor self-renewal | 
4 | CNCCNS(=O)(=O)c1cccc2cnccc12 [H8] | sustained neural precursor self-renewal | 
5 | Cl.N=C(N)NCCNS(=O)(=O)c1cccc2cnccc12 [HA1004, N-(2′-Guanidinoethyl)-5-isoquinolinesulfonamide.HCl] |  | did not impact on their ability to produce neurons

— US20160053226A1, “Method and Medium for Amplifying Neural Precursor Cells” (INSERM (INSTITUT NATIONAL DE LA SANTÉ ET DE LA RECHERCHE …, priority 2013, published 2016)
